In US12516041B2, “Crystal forms of GLP-1R agonists and uses thereof” (QILU REGOR THERAPEUTICS INC., priority 2020, dated 2026):
In brackets after ≈: the same amount, converted by molar mass. Where two headings read alike, the source gives them in different places.

What was measured:
Format in all cases: physicochemical
[1] = Solubility test in bio-relevant media (SGF, FeSSIF, FaSSIF), HPLC of filtrate, XRPD of filter cake; conditions: for solubility at 24 h / solubility at 0.5 h / solubility at 2 h: 37 °C, thermodynamic from solid; for solubility at 24 h: read-out: Solubility (μg/mL) 24 h; for solubility at 0.5 h: read-out: Solubility (μg/mL) 0.5 h; for solubility at 2 h: read-out: Solubility (μg/mL) 2 h
Description: (§1) HPLC analysis was performed with an Agilent HPLC 1260 series instrument.
(§2) HPLC Method for Stability and Solubility Testing
The solubility of free acid Form I was tested in bio-relevant media (Simulated Gastric Fluid (SGF), Fasted-State Simulated Intestinal Fluid (FaSSIF) and Fed-State Simulated Intestinal Fluid (FeSSIF)) at 37° C. for up to 24 hours. About 15 mg of the sample was weighed into sample vial, and then 5.0 mL of bio-relevant media was added to make suspension. All suspensions prepared were shaken @ 600 rpm with a QQMSC-100 shaker at 37° C. At 0.5, 2 and 24 hours, about 1000 μL of each suspension was filtered and diluted, and then the filtrate was analyzed by HPLC to test the solubility. The pH of the filtrate was measured, and the filter cake was analyzed by XRPD.

[2] = Solid-state stability study (HPLC purity, XRPD)
Description: XRPD patterns were identified with an X-ray diffractometer (PANalytical Empyrean). The system was equipped with PIXcel^1D detector. Samples were scanned from 3 to 40° 2θ, at a step size of 0.013° 2θ. The tube voltage and current were 45 KV and 40 mA, respectively.
as §1, §2
About 25 mg of free acid Form I was placed at 60° C./capped and 40° C./75% RH (open) conditions for up to 12 days. At day 0 and 7, the sample was dissolved in diluent to prepare 0.5 mg/mL solution for HPLC purity analysis. Solid samples were analyzed by XRPD to check the crystal form at day 12.

[3] = Dynamic Vapor Sorption (DVS)
Source text: Moisture sorption/desorption data was collected on a Vsorp Dynamic Moisture Sorption Analyzer (ProUmid GmbH & Co. KG, Germany). The sample was placed into a tared sample chamber and automatically weighed.
The product obtained from preparation method 1 was characterized by XRPD (FIG. 1), TGA, DSC (FIG. 2), DVS (FIG. 3), and ^1H-NMR.

Molecule O=C(O)c1ccc2nc(Cc3ccc(-c4cccc(OCc5ccc(Cl)cc5F)n4)cc3F)n(C[C@@H]3CCO3)c2c1 [Free Acid Form I, (S)-2-(4-(6-((4-chloro-2-fluorobenzyl)oxy)pyridin-2-yl)-2-fluorobenzyl)-1-(oxetan-2-ylmethyl)-1H-benzo[d]imidazole-6-carboxylic acid] has a solubility at 24 h ([1]; FaSSIF, pH 6.45, fassif, FaSSIF, pH 6.45 (24 h)) of 15 µg/mL (≈ 26 µM), a solubility at 0.5 h ([1]; FaSSIF, pH 6.5, fassif, FaSSIF, pH 6.50 (0 h)) of roughly 5 µg/mL (≈ 8.68 µM) and a solubility at 2 h ([1]; FaSSIF, pH 6.5, fassif, FaSSIF) of 6 µg/mL (≈ 10.4 µM). It also gave a solubility at 24 h ([1]; FeSSIF, pH 4.95, fessif, FeSSIF, pH 4.95 (24 h)) of 11 µg/mL (≈ 19.1 µM), a solubility at 0.5 h ([1]; FeSSIF, pH 4.99, fessif, FeSSIF, pH 4.99 (0 h)) of roughly 10 µg/mL (≈ 17.4 µM) and a solubility at 2 h ([1]; FeSSIF, pH 4.99, fessif, FeSSIF) of 17 µg/mL (≈ 29.5 µM). For the same molecule, the “Solubility in SGF (in words)” value ([1]; SGF, 37° C.) was “insoluble”, the “XRPD pattern after solubility study” value ([1]; bio-relevant media, 37° C., up to 24 hours) was “not changed” and the “XRPD (24 h)” value ([1]; filter cake after 24 h in FaSSIF, 37° C.) was “Unchanged”. For the same molecule, the “XRPD (24 h)” value ([1]; filter cake after 24 h in FeSSIF, 37° C.) was “Unchanged”, the “XRPD (24 h)” value ([1]; filter cake after 24 h in SGF, 37° C.) was “Unchanged” and the “Purity-1 week (Area %) 40° C./75% RH, 1 week” value ([2]; 40° C./75% RH (open), 1 week, HPLC) was 99.56 Area %. The “XRPD-12 days 40° C./75% RH” value ([2]; 40° C./75% RH (open), 12 days) was “Unchanged”, the “Physical and chemical stability (in words)” value ([2]; 60° C./capped and 40° C./75% RH (open), 12 days) was “physically and chemically stable” and the “Purity-1 week (Area %) 60° C./Capped, 1 week” value ([2]; 60° C./capped, 1 week, HPLC) was 99.54 Area %. The “XRPD-12 days 60° C./Capped” value ([2]; 60° C./capped, 12 days) was “Unchanged”, the “Initial Purity (Area %)” value ([2]; day 0, HPLC) was 99.58 Area % and the “Hygroscopicity (DVS)” value [3] was “Slightly”. The “DVS weight change to 90% RH” value ([3]; 0 to 90% RH) was 0.6%, the “Crystal form after DVS test” value ([3]; after DVS test) was “remained unchanged” and the “DVS weight change 0-80% RH” value ([3]; from 0 to 80% RH) was roughly 0.3%. For the same molecule, the “Hygroscopicity (DVS)” value ([3]; listed as crystalline Form I of Compound A free acid) was “slightly hygroscopic” and the “Hygroscopicity (DVS)” value ([3]; listed as free acid Form I) was “slightly hygroscopic”.
